Measured values as given in ChEMBL document CHEMBL5321282, “Design, Synthesis, and Biological Evaluation of Esculetin-Furoxan-DEAC Ternary Hybrids for Anti-Triple Negative Breast Cancer” (J Med Chem, 2023).
The source made the active and inactive calls. No cut-off for these calls is given here.

Assays:
[1] = system: MDA-MB-231; assay: Induction of cell cycle arrest in human MDA-MB-231 cells assessed as accumulation of cells at S phase at 10 nM measured after 24 hrs by PI staining based flow cytometric analysis (Rvb =24.1%); type: functional
[2] = system: MDA-MB-231; assay: Induction of apoptosis in human MDA-MB-231 cells assessed as decrease in mitochondrial SMAC level at 5 to 20 nM incubated for 8 hrs by Western blotting analysis; type: functional, cell-based; settings: dose 5-20 nM
[3] = system: MDA-MB-231; assay: Induction of cell cycle arrest in human MDA-MB-231 cells assessed as accumulation of cells at G1 phase at 20 nM measured after 24 hrs by PI staining based flow cytometric analysis (Rvb =58%); type: functional
[4] = Toxicity in BALB/C mouse xenografted with human MDA-MB-231 cells assessed as liver damage at 2.5 to 5 mg/kg, ip administered every 2 days measured after 3 weeks by H and E staining based analysis; type: organism-based; settings: in vivo, 504 h, dose 2.5-5 mg/kg
[5] = system: MDA-MB-231; assay: Induction of apoptosis in human MDA-MB-231 cells assessed as necrotic cells at 20 nM incubated for 24 hrs by Annexin V-FITC/PI staining based flow cytometric analysis (reference value: 0.11%); type: functional
[6] = system: MDA-MB-231; assay: Induction of apoptosis in human MDA-MB-231 cells assessed as increase in Bad level incubated for 8 hrs by Western blotting analysis; type: functional, cell-based; settings: dose 5-20 nM
[7] = system: MDA-MB-231; assay: Induction of apoptosis in human MDA-MB-231 cells assessed as early apoptotic cells at 5 nM incubated for 24 hrs by Annexin V-FITC/PI staining based flow cytometric analysis (reference value: 4.90%); type: functional
[8] = system: MDA-MB-231; assay: Induction of cell cycle arrest in human MDA-MB-231 cells assessed as accumulation of cells at G2 phase at 10 nM measured after 24 hrs by PI staining by flow cytometric analysis (Rvb =18.1%); type: functional
[9] = system: MDA-MB-231; assay: Induction of apoptosis in human MDA-MB-231 cells assessed as total apoptotic cells at 5 to 20 nM incubated for 24 hrs by Annexin V-FITC/PI staining based flow cytometric analysis (Rvb =10.03%); type: functional; settings: dose 5-20 nM
[10] = system: MDA-MB-231; assay: Induction of cell cycle arrest in human MDA-MB-231 cells assessed as accumulation of cells at G2 phase at 5 nM measured after 24 hrs by PI staining by flow cytometric analysis (Rvb =18.1%); type: functional
[11] = Selectivity index, ratio of IC50 for cytotoxicity against human MCF-10A cells to IC50 for antiproliferative activity against human MDA-MB-231 cells; type: toxicity, cell-based; settings: MCF-10A cells versus MDA-MB-231 cells, read-out: Ratio IC50
[12] = system: A549; assay: Antiproliferative activity against human A549 cells assessed as inhibition of cell growth measured after 48 hrs by MTT assay; type: functional, cell-based; settings: A549, 48 h
[13] = system: MDA-MB-231; assay: Induction of apoptosis in human MDA-MB-231 cells assessed as increase in activation of caspase level incubated for 8 hrs by Western blotting analysis; type: functional, cell-based; settings: dose 5-20 nM
[14] = Drug localization in mitochondria of human MDA-MB-231 cells at 1 uM incubated for 1 hr measured after 40 mins by mito-tracker probe based confocal laser scanning microscopic analysis; type: ADME; settings: mda-mb-231, 1.667 h, time 100 min
[15] = Drug localization in mitochondria of human HCT-116 cells at 1 uM incubated for 1 hr measured after 40 mins by mito-tracker probe based confocal laser scanning microscopic analysis; type: ADME; settings: hct-116, 1.667 h, time 100 min
[16] = system: MDA-MB-231; assay: Induction of mitochondrial membrane potential depolarization in human MDA-MB-231 cells assessed as increase in green fluorescence at 5 to 20 nM incubated for 24 hrs by JC-1 staining based inverted fluorescent microscopic analysis; type: functional, cell-based; settings: dose 5-20 nM
[17] = system: MDA-MB-231; assay: Induction of apoptosis in human MDA-MB-231 cells assessed as increase in CypD level incubated for 8 hrs by Western blotting analysis; type: functional, cell-based; settings: dose 5-20 nM
[18] = Toxicity in BALB/C mouse xenografted with human MDA-MB-231 cells assessed as kidney damage at 2.5 to 5 mg/kg, ip administered every 2 days measured after 3 weeks by H and E staining based analysis; type: organism-based; settings: in vivo, 504 h, dose 2.5-5 mg/kg
[19] = system: MDA-MB-231; assay: Induction of cell cycle arrest in human MDA-MB-231 cells assessed as accumulation of cells at S phase at 20 nM measured after 24 hrs by PI staining based flow cytometric analysis (Rvb =24.1%); type: functional
[20] = system: MDA-MB-231; assay: Antitumor activity against human MDA-MB-231 cells xenografted in BALB/C mouse assessed as inhibition of tumor volume at 5 mg/kg, ip administered every 2 days measured after 3 weeks; type: functional; set-up: scale not given: the % may be the effect or the level left
[21] = system: MDA-MB-231; assay: Induction of apoptosis in human MDA-MB-231 cells assessed as viable cells at 5 nM incubated for 24 hrs by Annexin V-FITC/PI staining based flow cytometric analysis (reference value: 90.1%); type: functional; settings: read-out: Activity
[22] = system: MDA-MB-231; assay: Induction of cell cycle arrest in human MDA-MB-231 cells assessed as accumulation of cells at G2 phase at 20 nM measured after 24 hrs by PI staining by flow cytometric analysis (Rvb =18.1%); type: functional
[23] = Cytotoxicity against human MCF-10A cells assessed as inhibition in cell growth measured after 48 hrs by MTT assay; type: toxicity, cell-based
[24] = system: MDA-MB-231; assay: Induction of apoptosis in human MDA-MB-231 cells assessed as early apoptotic cells at 20 nM incubated for 24 hrs by Annexin V-FITC/PI staining based flow cytometric analysis (reference value: 4.90%); type: functional
[25] = system: MDA-MB-231; assay: Induction of apoptosis in human MDA-MB-231 cells assessed as decrease in mitochondrial CytC level at 5 to 20 nM incubated for 8 hrs by Western blotting analysis; type: functional, cell-based; settings: dose 5-20 nM
[26] = Cytotoxicity against human L02 cells assessed as inhibition in cell growth measured after 48 hrs by MTT assay; type: toxicity, cell-based
[27] = system: MDA-MB-231; assay: Antiproliferative activity against human MDA-MB-231 cells assessed as effect on NO level at 20 nM measured after 24 hrs in presence of PTIO by MTT assay; type: functional, cell-based
[28] = system: MDA-MB-231; assay: Induction of apoptosis in human MDA-MB-231 cells assessed as late apoptotic cells at 5 nM incubated for 24 hrs by Annexin V-FITC/PI staining based flow cytometric analysis (reference value: 4.90%); type: functional
[29] = system: MDA-MB-231; assay: Induction of apoptosis in human MDA-MB-231 cells assessed as increase in Bax level incubated for 24 hrs by Western blotting analysis; type: functional, cell-based; settings: dose 5-20 nM
[30] = system: MDA-MB-231; assay: Induction of mitochondrial membrane potential depolarization in human MDA-MB-231 cells assessed as decrease in red fluorescence at 5 to 20 nM incubated for 24 hrs by JC-1 staining based inverted fluorescent microscopic analysis; type: functional, cell-based; settings: dose 5-20 nM
[31] = system: MDA-MB-231; assay: Antitumor activity against human MDA-MB-231 cells xenografted in BALB/C mouse assessed as increase in ROS level in tumor at 2.5 to 5 mg/kg, ip administered every 2 days measured after 3 weeks by DHE staining based analysis; type: functional, organism-based; settings: dose 2.5-5 mg/kg
[32] = system: HCT-116; assay: Antiproliferative activity against human HCT-116 cells assessed as inhibition of cell growth measured after 48 hrs by MTT assay; type: functional, cell-based; settings: HCT-116, 48 h
[33] = system: MDA-MB-231; assay: Antiproliferative activity against human MDA-MB-231 cells assessed as effect on NO level at 25 uM incubated for 2 hrs; type: functional, cell-based
[34] = system: MDA-MB-231; assay: Induction of apoptosis in human MDA-MB-231 cells assessed as effect on ANT level at 5 to 20 nM incubated for 8 hrs by Western blotting analysis; type: functional, cell-based; settings: dose 5-20 nM

IC50 [12]: 0.84 µM
Drug uptake [14]: Active
Drug uptake [15]: Active
IC50 [32]: 4.14 µM
Compound: CCN(CC)c1ccc2cc(C(=O)OCCCCCOc3cc4ccc(=O)oc4cc3OCCCCCCOc3no[n+]([O-])c3S(=O)(=O)c3ccccc3)c(=O)oc2c1
Activity [1]: 25.9%
Activity [2]: Active
Activity [3]: 57.9%
Activity [4]: Non-Toxic
Activity [5]: 3.93%
Activity [6]: Dose-Dependent Effect
Activity [7]: 12.2%
Activity [8]: 13.8%
Activity [9]: 71.69%
Activity [10]: 12.8%
selectivity ratio [11]: > 6250
Activity [13]: Dose-Dependent Effect
Activity [16]: Active
Activity [17]: Dose-Dependent Effect
Activity [18]: Non-Toxic
Activity [19]: 21%
Activity [20]: 63.5%
viability at 0.005 µM [21]: 67.1%
Activity [22]: 21.4%
IC50 at 48 h [23]: > 50 µM
Activity [24]: 31.9%
Activity [25]: Active
IC50 at 48 h [26]: 11.9 µM
Activity [27]: inactive
Activity [28]: 20.4%
Activity [29]: Dose-Dependent Effect
Activity [30]: Active
Activity [31]: Active
Activity [33]: Active
Activity [34]: inactive
